Test results taken from paper PMC8631515 (Frontiers in Oncology, 2021).
Non-standard residues stand in square brackets, D forms with d. No end group written: not given here.

B1: PPA1, proteolysis resistant PD-L1-targeted peptide (peptide)
peptide: NYSKPTDRQYHFK
modifications: all residues in D-form
notes: D-peptide, printed in lower case (nyskptdrqyhfk); also called free PPA1; PD-L1 targeting polypeptide; source: synthetic peptide, bought: Chinapeptides Co., Ltd
B2: PPA1-DOX, conjugate of PPA1 with doxorubicin through an acid-sensitive hydrazone linker (peptide)
peptide: [dN][dY][dS][dK][dP][dT][dD][dR][dQ][dY][dH][dF]K
modifications: not fully specified (residue 13); also: triazole from click, hydrazone to doxorubicin
notes: D-peptide, printed as nyskptdrqyhf-Lys(N3); the last lysine carries the azide used for the conjugation to DOX; also called compound 5; PPA-DOX; source: synthetic: azide end-functionalized PPA1 peptide joined to hydrazine-DOX by click chemistry, purified by HPLC

What was measured:
[1] = system: heart, liver and kidney; assay: H&E histology of major organs of tumor-bearing mice; type: in vivo, Balb/c mice; settings: CT26-bearing mice, i.p. twice a week for two weeks, n = 7
[2] = Body weight of CT26 tumor-bearing mice; settings: i.p. twice a week for two weeks, DOX 5 mg/kg, 5-Fu 10 mg/kg, PPA1 15 mg/kg, PPA1-DOX 20 mg/kg, after day 7, n = 7
Description: Six-week-old female Balb/c mice were inoculated subcutaneously with 5 × 10^6 CT26 cells in the left armpit. The mice were randomly divided into groups with 7 mice in each group after the tumor reached about 100 mm^3. The mice were housed in animal house of Shenzhen University. For the survival experiment, the mice were killed when the tumor reached about 1500 mm^3. The tumor size and body weight were monitored every day after the injection of the drugs. At the end of the experiment, the tumors and major organs (heart, liver, spleen, lung, and kidney) were collected for immunohistochemistry and/or histological tests. For the PPA1-DOX distribution experiment, the tumors and major organs were subsequently analyzed with an in vivo imaging system (IVIS Spectrum, PerkinElmer).
DOX at 5 mg/kg, 5-Fu at 10 mg/kg, PPA1 and RAN at 15mg/kg, PPA1-DOX and RAN-DOX at 20 mg/kg were injected intraperitoneally to mice twice a week for two weeks. […] For the PPA1-DOX distribution experiment, RhB-PPA1-DOX and RhB-RAN-DOX at 20mg/kg were injected into the tail vein of the mice.

[3] = system: CT26 tumor; assay: Antitumor activity in CT26-bearing mice; type: in vivo, Balb/c mice; settings: i.p. twice a week for two weeks
[4] = Cleavage assay of PPA1-DOX in acidic sodium phosphate buffer; type: physicochemical; settings: sodium phosphate buffer pH 5.0, 37°C, sampled 0.5-24 h, under nitrogen, 1 mg/mol (so in the source) in 2 mL; HPLC (HILIC), UV 254 nm
Description: (§1) To verify the acid sensitivity of hydrazone bond linking the PPA1 to DOX, a series of PPA1-DOX and DOX solutions with different concentrations were configured in the sodium phosphate buffer (pH= 9.0), respectively. A 5 μL aliquot of each sample was injected onto an HPLC system with ultraviolet detector wavelength to determine 254 nm absorbance values, using hydrophilic interaction chromatography (HILIC) column separation (Waters, XBridge BEH HILIC XP Column, 2.1 mm, 50 mm, 2.5 µm). Through simulating the linearity fitting from disposed concentrations and detected absorbance values, standard curves of PPA1-DOX and DOX were obtained, respectively.
(§2) Preparing two partials of PPA1-DOX (1 mg/mol) were dissolved into the 2 mL sodium phosphate buffer (pH = 5.0) and 2 mL mouse serum (pH = 7.4), respectively, and the vials were capped and kept 37°C under nitrogen with continuously slight oscillaation. Samples (20 μL) were spiked and analyzed by HPLC under the 254 nm absorbance value after incubating 0.5 h, 1 h, 2 h, 4 h, 12 h and 24 h. For evaluation of hydrazone bond cleavage data was considered the disappearance of the major peak related to the standard curves of PPA1-DOX and DOX.

[5] = system: intratumoral CD4+ and CD8+ T cells; assay: CD4/CD8 immunohistochemistry of tumor tissues; type: in vivo, Balb/c mice; settings: CT26-bearing mice, compared with RNA-DOX-, DOX- or 5-FU-treated mice
Description: The tumor tissues were fixed in 4% paraformaldehyde, gradually dehydrated, embedded in paraffin, cut into 4um sections, and subjected for hematoxylin/eosin staining. For immuno-histochemical staining of CD4/CD8 positive cells, tissue sections processed through deparaffinage, rehydration and antigen plerosised, and endogenous peroxidase activity blockade, were incubated with mouse anti-human CD4(1:300, Proteintech, USA), mouse anti-human CD8(1:200, Proteintech, USA) at 4°C overnight, respectively. The secrions were then washed and incubated with a HRP-labeled secondary antibody at RT for 40 min. After color development through incubation with diaminobenzidine, the sections were counterstained with hematoxylin. The stained sections were observed and imaged under a light microscope.

[6] = Cleavage assay of PPA1-DOX in mouse serum; type: in vitro ADME; settings: mouse serum pH 7.4, 37°C, 24 h, under nitrogen, 1 mg/mol (so in the source) in 2 mL; HPLC (HILIC), UV 254 nm
Description: as §1, §2

[7] = target: Programmed death-ligand 1 (PD-L1), Tag1-PD-L1 (UniProt Q9NZQ7 19-238); assay: AlphaScreen or HTRF; Cisbio HTRF PD1/PD-L1 binding assay kit; Tag1-PD-L1 and Tag2-PD1 detected with anti-Tag1-Europium (donor) and anti-Tag2-XL665 (acceptor); peptide or conjugate varied as blocker; IC50 from a sigmoidal (Hill) fit; n = 3; settings: both partners purified
Chain of Programmed death-ligand 1 (PD-L1), Tag1-PD-L1 (Q9NZQ7 19-238): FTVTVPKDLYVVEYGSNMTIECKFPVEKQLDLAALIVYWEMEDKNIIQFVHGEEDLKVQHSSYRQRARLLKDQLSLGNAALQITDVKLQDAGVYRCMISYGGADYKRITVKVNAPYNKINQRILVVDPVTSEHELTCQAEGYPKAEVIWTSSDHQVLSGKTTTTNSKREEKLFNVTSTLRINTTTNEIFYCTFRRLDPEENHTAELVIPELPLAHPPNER

Molecule | toxicity to major organs (H&E stained sections) [1] | IC50 [7] [nM] | further results
O=c1[nH]cc(F)c(=O)[nH]1 [Compound 5-Fu] | severe damages |  | 
C[C@H](O)[C@@H](NC(=O)[C@H]1CCCN1C(=O)[C@@H](CCCCN)NC(=O)[C@@H](CO)NC(=O)[C@@H](Cc1ccc(O)cc1)NC(=O)[C@H](N)CC(N)=O)C(=O)N[C@H](CC(=O)O)C(=O)N[C@H](CCCNC(=N)N)C(=O)N[C@H](CCC(N)=O)C(=O)N[C@H](Cc1ccc(O)cc1)C(=O)N[C@H](Cc1c[nH]cn1)C(=O)N[C@H](Cc1ccccc1)C(=O)N[C@H](CCCCN)C(=O)O [PPA1] | rather low toxicity |  | 
COc1cccc2c1C(=O)c1c(O)c3c(c(O)c1C2=O)C[C@@](O)(C(CO)=NNC(=O)CCCc1cn(CC(=O)NCCCC[C@@H](NC(=O)[C@@H](Cc2ccccc2)NC(=O)[C@@H](Cc2c[nH]cn2)NC(=O)[C@@H](Cc2ccc(O)cc2)NC(=O)[C@@H](CCC(N)=O)NC(=O)[C@@H](CCCNC(=N)N)NC(=O)[C@@H](CC(=O)O)NC(=O)[C@H](NC(=O)[C@H]2CCCN2C(=O)[C@@H](CCCCN)NC(=O)[C@@H](CO)NC(=O)[C@@H](Cc2ccc(O)cc2)NC(=O)[C@H](N)CC(N)=O)[C@H](C)O)C(=O)O)nn1)C[C@@H]3O[C@H]1C[C@H](N)[C@H](O)[C@H](C)O1 [PPA1-DOX] | rather low toxicity |  | body weight change [2]: no remarkable body weight loss; survival time ([3]; PPA1-DOX 20 mg/kg, superior to free PPA1 and RAN-DOX, mice killed at tumor about 1500 mm^3, n = 7): longer survival time; tumor growth ([3]; PPA1-DOX and RAN-DOX 20 mg/kg, n = 7): effective suppression of tumor growth; hydrazone cleavage in acidic environment [4]: rapidly cleaved into PPA1 and DOX; infiltration of CD4+ and CD8+ T cells in tumors [5]: obviously increased infiltration; stability of conjugate in mouse serum (HPLC peaks) [6]: little change on peaks
COc1cccc2c1C(=O)c1c(O)c3c(c(O)c1C2=O)C[C@@](O)(C(=O)CO)C[C@@H]3O[C@H]1C[C@H](N)[C@H](O)[C@H](C)O1 [DOX, doxorubicin] | severe damages |  | 
B1 |  | 174 | 
B2 |  | 281 | 
